In one data set the target is T1, P-type calcium channels (Rattus norvegicus, UniProt P54282).
T1 construct: Male rats (Sprague-Dawley, 200-220 g) were killed by decapitation and neocortices were isolated by blunt dissection; from tissue; host or cells: Sprague-Dawley rat neocortex, crude synaptosomes
In words: Inhibition of depolarization induced Ca++ flux (CaFl), 45Ca++ influx into rat neocortical synaptosomes. The note with it: 30 mM KCl stimulated 45Ca flux, rat neocortical synaptosomes. The format is biochemical. An excerpt: A large influx of calcium from extracellular compartments into neurons is observed after opening of voltage-dependent calcium channels. The opening of calcium channels may be induced by a K^+ -stimulated depolarization of neuronal membranes. A crude synaptosomal preparation contains small vesicles surrounded by neuronal membranes, and it is feasible to study the opening of voltage-operated calcium channels in such a preparation. In the test described below, the influx of ^45 Ca^++ into rat synaptosomes is studied under depolarized conditions. The effect of the test compounds on the depolarization induced calcium update can thus be studied. The calcium influx measured in this assay is believed to represent the P-type calcium channels.
Male rats (Sprague-Dawley, 200-220 g) were killed by decapitation and neocortices were isolated by blunt dissection. White matter was dissected away and the gray matter was placed in cold sucrose buffer (composition (mM): sucrose 320, TRIS base 5.0, EDTA 0.1; adjusted to pH 7.3 with HCl). The tissue was homogenized using 5 strokes at 500 rpm followed by 4 strokes at 800 rpm. The homogenate was centrifuged at 1075 g for 10 minutes. The pellet was discarded and the supernatant was centrifuged at 15800 g for 10 minutes at 4° C., and the supernatant was discarded. The final pellet was resuspended in incubation buffer and kept on ice.
Fifty-microliter aliquots of neocortical synaptosome suspension were preincubated for 5 minutes at 25° C. in 400 μL of incubation buffer containing drug or control solvent. The synaptosomes were then exposed to a tracer quantity of ^45 CaCl2 (1 μCi/mL) in combination with either 3 mM KCl (basal calcium flux or 30 mM KCl (stimulated calcium flux). The calcium flux was terminated by filtration over glass-fiber filters (GFB) using a Skatron 12-well harvester; filters were washed with a pressurized, continuous flow of 3 mL wash buffer (composition (mM): choline chloride 140, EGTA 3, HEPES 22; adjusted to pH 7.3 with TRIS base). Radioactivity of the filters was measured by scintillation counting. Basal calcium flux was subtracted from stimulated calcium flux in both control- and drug-treated conditions, and data were expressed as percent inhibition of the adjusted control response.

In another data set the test system is male CF-1 mice. In words: Maximal electroshock (MES) anticonvulsant screen in mice. The format is in vivo. Background: Protection in the maximal electroshock model is a classic sign of anticonvulsant action.
A further data set has as its target sodium channels. As to conditions: rat neocortical membranes, 5 nM [3H]batrachotoxinin, Cheng-Prusoff; read-out: BTX Binding.

T1 sequence (P54282 whole entry): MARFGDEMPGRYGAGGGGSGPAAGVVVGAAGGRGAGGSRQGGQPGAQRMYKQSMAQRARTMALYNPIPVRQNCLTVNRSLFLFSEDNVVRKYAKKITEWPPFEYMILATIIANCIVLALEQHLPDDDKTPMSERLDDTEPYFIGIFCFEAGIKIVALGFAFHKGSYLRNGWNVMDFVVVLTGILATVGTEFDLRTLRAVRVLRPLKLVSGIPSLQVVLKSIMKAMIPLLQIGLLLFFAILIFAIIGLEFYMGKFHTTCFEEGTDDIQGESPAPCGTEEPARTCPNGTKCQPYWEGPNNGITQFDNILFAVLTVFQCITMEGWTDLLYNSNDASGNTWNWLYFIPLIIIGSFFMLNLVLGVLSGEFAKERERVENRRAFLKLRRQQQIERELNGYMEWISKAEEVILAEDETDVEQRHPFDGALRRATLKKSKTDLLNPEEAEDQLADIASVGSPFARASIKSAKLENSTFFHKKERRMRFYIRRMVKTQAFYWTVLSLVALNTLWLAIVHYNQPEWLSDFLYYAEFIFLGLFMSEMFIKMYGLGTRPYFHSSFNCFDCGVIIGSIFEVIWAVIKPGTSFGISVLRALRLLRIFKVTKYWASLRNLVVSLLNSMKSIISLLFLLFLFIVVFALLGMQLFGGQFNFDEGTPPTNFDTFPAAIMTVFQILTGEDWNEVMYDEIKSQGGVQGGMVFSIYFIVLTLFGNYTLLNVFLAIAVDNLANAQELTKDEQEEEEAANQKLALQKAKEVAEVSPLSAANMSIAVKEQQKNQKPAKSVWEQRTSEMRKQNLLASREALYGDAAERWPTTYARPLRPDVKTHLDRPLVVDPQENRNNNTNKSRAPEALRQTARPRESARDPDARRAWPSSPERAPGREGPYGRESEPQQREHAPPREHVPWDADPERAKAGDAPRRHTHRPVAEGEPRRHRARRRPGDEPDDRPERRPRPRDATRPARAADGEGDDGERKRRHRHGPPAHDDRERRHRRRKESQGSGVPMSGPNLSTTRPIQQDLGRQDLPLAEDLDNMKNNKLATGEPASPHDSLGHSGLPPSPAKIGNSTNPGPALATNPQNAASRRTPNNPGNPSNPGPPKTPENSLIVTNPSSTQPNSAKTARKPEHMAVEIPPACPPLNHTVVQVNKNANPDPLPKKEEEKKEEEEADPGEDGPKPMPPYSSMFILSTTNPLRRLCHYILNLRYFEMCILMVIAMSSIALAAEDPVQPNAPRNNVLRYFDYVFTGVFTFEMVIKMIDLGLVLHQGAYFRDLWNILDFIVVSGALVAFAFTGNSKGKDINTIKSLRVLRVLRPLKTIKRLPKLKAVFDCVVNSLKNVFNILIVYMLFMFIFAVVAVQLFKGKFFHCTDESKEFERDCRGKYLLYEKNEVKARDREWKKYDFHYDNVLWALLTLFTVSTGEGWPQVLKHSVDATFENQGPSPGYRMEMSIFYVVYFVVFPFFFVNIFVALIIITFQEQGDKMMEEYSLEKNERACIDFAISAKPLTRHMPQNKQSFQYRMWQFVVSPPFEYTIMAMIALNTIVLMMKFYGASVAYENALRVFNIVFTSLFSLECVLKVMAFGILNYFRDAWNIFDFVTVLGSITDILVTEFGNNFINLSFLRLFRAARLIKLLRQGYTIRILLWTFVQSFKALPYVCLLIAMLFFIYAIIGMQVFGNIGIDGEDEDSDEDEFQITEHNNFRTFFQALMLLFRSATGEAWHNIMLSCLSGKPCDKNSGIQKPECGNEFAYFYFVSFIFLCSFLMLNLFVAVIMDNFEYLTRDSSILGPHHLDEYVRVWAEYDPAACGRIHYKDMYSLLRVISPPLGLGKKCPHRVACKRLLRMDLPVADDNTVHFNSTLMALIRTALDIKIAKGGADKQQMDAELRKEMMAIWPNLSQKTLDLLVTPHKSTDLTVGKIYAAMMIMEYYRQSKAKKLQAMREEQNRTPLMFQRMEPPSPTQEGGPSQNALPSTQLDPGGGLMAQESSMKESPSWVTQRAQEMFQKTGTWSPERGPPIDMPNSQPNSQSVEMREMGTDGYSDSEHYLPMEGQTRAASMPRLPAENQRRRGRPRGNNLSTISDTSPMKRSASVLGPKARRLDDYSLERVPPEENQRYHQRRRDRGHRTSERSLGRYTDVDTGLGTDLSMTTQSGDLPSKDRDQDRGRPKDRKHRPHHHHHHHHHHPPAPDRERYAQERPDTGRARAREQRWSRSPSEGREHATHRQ
Procedure for male CF-1 mice: All experiments were conducted on male CF-1 mice (Charles River Laboratory, Portage, Mich.). The mice weighed 20 to 35 g and were allowed free access to food and water prior to testing. The compounds were dissolved in various solutions of up to 50% organic solvents and 50% buffered solutions. All doses were injected intravenously (IV) in a volume of 1.0 mL per 100 g of body weight using a 25-gauge needle and a 1 cc syringe. Doses of the compounds were calculated as the free base.
Maximal electroshock was administered via corneal electrodes with an electroshock apparatus (Wahlquist Instrument Company) immediately following the inverted screen test. The stimulus consisted of a 50 mA current (100 mA peak-to-peak) and duration of 0.2 seconds. The protocol for the MES assay involved groups of five mice per dose at each time period postdose. […] The mice were sacrificed with carbon dioxide immediately after MES. Anticonvulsant data were recorded as the number of mice protected from MES out of five. Two out of five were considered active.

With `COc1ccc(CCN(C)CC(O)COc2ccc(C3CCCCC3)cc2C)cc1OC` (centres unmarked) [Example 24, 1-(4-Cyclohexyl-2-methylphenoxy)-3-{[2-(3,4-dimethoxyphenyl)-ethyl]-methylamino}-propan-2-ol], on P-type calcium channels, the IC50 stood at 2100 nM. Moreover, the “MES, number of mice protected” value was 0/5 in the data set on male CF-1 mice (1 mg/kg IV, 3 min postdose); 0/5 with male CF-1 mice (1 mg/kg IV, 30 min postdose); 0/5 in the data set on male CF-1 mice (3 mg/kg IV, 3 min postdose); 1/5 in the data set with male CF-1 mice (3 mg/kg IV, 30 min postdose); 1/5 with male CF-1 mice (3 mg/kg IV, 1 hr postdose); 4/5 with male CF-1 mice (10 mg/kg IV, 3 min postdose). Further, the “MES, number of mice protected” value is 4/5 with male CF-1 mice (10 mg/kg IV, 30 min postdose) and 3/4 in the data set with male CF-1 mice (10 mg/kg IV, 1 hr postdose). The “Animals died in this group” value in the data set on male CF-1 mice (10 mg/kg IV, 1 hr group) is 1/5. The Ki at sodium channels turned out to be 310 nM.

As usually defined, the IC50 is the point on the concentration scale where inhibition reaches its midpoint.

Values taken from patent US5482964A, “Substituted phenoxyhydroxypropyl amines as central nervous system agents” (Warner-Lambert Company, priority 1994, dated 1996).
